Laboratory results published in patent US5932410A, “Assay for the detection of proteases” (Commonwealth Scientific and Industrial Research …, priority 1994, dated 1999).
Where a SMILES comes first, the peptide text is derived from it. The star is where a group is joined. Cbz = O=C(OCc1ccccc1)*

What was measured:
[1] = target: prostate specific antigen (PSA) (Homo sapiens, UniProt P07288); experiment: Esterase assay, PSA on peptide ester substrates; type: biochemical; conditions: for Rate relative to Ac-AlaValTyr-OMe (218): rate of hydrolysis; for Substrate preference of PSA: within the substrate series tested
Sequence of prostate specific antigen (PSA) (P07288 25-261): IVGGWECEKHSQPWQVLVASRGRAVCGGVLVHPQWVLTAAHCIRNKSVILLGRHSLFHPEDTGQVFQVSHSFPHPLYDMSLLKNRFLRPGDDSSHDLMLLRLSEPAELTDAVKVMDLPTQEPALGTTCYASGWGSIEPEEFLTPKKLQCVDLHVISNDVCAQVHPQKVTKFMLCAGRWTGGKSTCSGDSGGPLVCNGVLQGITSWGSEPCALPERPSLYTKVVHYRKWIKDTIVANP
Excerpt: (§1) Advantage was taken of this activity to develop an "esterase" assay which uses a pH indicator to visualise the hydrogen ion release caused by the action of proteases on peptide-ester substrates. A series of twenty compounds of the form, carbobenzoxy alanyl-X-methyl ester (Z-AX-OMe) were synthesised where "X" is one of the naturally occurring amino acids. These substrates were used in a 96 well microtitre plate assay to screen each mutant enzyme for activity and specificity. The reactions were followed visually or quantified using a standard ELISA plate reader.
In all eleven compounds were synthesised and purified and tested where X was the residue listed below.

Elastase = Elastase (Sus scrofa, UniProt P00772); experiment: Esterase assay, elastase; type: biochemical; conditions: Z-AX-OMe substrate; for Esterase rate, Elastase: X = P1 residue, rates approximately ± 10%; for % activity, Elastase: normalised to alanine
Sequence of Elastase (P00772 27-266): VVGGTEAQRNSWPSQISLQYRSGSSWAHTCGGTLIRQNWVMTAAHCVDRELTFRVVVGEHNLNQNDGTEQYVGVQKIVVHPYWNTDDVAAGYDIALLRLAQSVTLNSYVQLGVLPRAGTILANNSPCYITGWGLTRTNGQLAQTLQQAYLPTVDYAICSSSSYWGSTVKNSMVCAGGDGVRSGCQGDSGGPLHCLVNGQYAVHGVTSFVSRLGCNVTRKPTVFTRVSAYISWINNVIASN
Excerpt: as §1, with “reader. The esterase assay, using trypsin as a test enzyme and Z-Ala-Arg-OMe as substrate, was more sensitive as than traditional trypsin substrates (three times the rate obtained with benzoyl arginine ethyl aster and twenty times the rate of benzoyl arginine p-nitroanilide) (Whittaker et al., Analytical Biochemistry, 220, 238-243, 1994).” for “reader.”
(§2) The present inventors produced a panel of substrates carbobenzoxy alanyl-X-methyl eater (Z-AX-OMe) where X is one of the naturally occurring amino acids. The reactivity of these substrates with a number of serine proteases is set out in Table 1 and FIG. 1.
(§3) Rates are A580 change/min./mg protease. Rates are also shown as a […]

Thrombin = Thrombin (Homo sapiens, UniProt P00734); experiment: Esterase assay, thrombin; type: biochemical; conditions: Z-AX-OMe substrate; for Esterase rate, Thrombin: X = P1 residue, rates approximately ± 10%; for % of maximum activity, Thrombin: percentage of the maximum activity
Excerpt: as §1, with “reader. The esterase assay, using trypsin as a test enzyme and Z-Ala-Arg-OMe as substrate, was more sensitive as than traditional trypsin substrates (three times the rate obtained with benzoyl arginine ethyl aster and twenty times the rate of benzoyl arginine p-nitroanilide) (Whittaker et al., Analytical Biochemistry, 220, 238-243, 1994).” for “reader.”
as §2, §3

Proteinase K = Proteinase K (Parengyodontium album, UniProt P06873); experiment: Esterase assay, proteinase K; type: biochemical; conditions: Z-AX-OMe substrate; for Esterase rate, Proteinase K: X = P1 residue, rates approximately ± 10%; for % of maximum activity, Proteinase K: percentage of the maximum activity
Sequence of Proteinase K (P06873 106-384): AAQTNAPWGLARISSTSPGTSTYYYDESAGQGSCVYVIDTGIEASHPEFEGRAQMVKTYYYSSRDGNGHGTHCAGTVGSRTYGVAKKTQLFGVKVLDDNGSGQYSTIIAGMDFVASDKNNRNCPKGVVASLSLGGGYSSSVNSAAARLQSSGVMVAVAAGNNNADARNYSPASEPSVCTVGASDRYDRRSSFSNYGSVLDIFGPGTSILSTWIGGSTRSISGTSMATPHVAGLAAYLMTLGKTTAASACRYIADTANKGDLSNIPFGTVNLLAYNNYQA
Excerpt: as §1, with “reader. The esterase assay, using trypsin as a test enzyme and Z-Ala-Arg-OMe as substrate, was more sensitive as than traditional trypsin substrates (three times the rate obtained with benzoyl arginine ethyl aster and twenty times the rate of benzoyl arginine p-nitroanilide) (Whittaker et al., Analytical Biochemistry, 220, 238-243, 1994).” for “reader.”
as §2, §3

Subtilisin = experiment: Esterase assay, subtilisin; type: biochemical; conditions: Z-AX-OMe substrate; for Esterase rate, Subtilisin: X = P1 residue, rates approximately ± 10%; for % of maximum activity, Subtilisin: percentage of the maximum activity
Excerpt: as §1, with “reader. The esterase assay, using trypsin as a test enzyme and Z-Ala-Arg-OMe as substrate, was more sensitive as than traditional trypsin substrates (three times the rate obtained with benzoyl arginine ethyl aster and twenty times the rate of benzoyl arginine p-nitroanilide) (Whittaker et al., Analytical Biochemistry, 220, 238-243, 1994).” for “reader.”
as §2, §3

α-Lytic protease = α-Lytic protease (Lysobacter enzymogenes, UniProt P00778); experiment: Esterase assay, α-lytic protease; type: biochemical; conditions: Z-AX-OMe substrate; for Esterase rate, α-Lytic protease: X = P1 residue, rates approximately ± 10%; for % activity, α-Lytic protease: normalised to alanine
Sequence of α-Lytic protease (P00778 25-397 limits assumed): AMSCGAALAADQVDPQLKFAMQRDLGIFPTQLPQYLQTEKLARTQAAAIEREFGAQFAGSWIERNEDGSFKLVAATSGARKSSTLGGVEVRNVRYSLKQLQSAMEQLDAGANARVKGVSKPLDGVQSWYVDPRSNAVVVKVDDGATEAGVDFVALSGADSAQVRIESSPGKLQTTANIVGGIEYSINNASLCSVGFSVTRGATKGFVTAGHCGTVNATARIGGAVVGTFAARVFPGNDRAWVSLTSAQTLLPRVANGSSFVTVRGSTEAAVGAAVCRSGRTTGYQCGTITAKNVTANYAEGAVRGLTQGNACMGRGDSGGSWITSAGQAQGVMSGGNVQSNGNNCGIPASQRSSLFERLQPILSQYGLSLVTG
Excerpt: as §1, with “reader. The esterase assay, using trypsin as a test enzyme and Z-Ala-Arg-OMe as substrate, was more sensitive as than traditional trypsin substrates (three times the rate obtained with benzoyl arginine ethyl aster and twenty times the rate of benzoyl arginine p-nitroanilide) (Whittaker et al., Analytical Biochemistry, 220, 238-243, 1994).” for “reader.”
as §2, §3

Chymotrypsin = Chymotrypsin (Bos taurus, UniProt P00766); experiment: Esterase assay, chymotrypsin; type: biochemical; conditions: Z-AX-OMe substrate; for Esterase rate, Chymotrypsin: X = P1 residue, rates approximately ± 10%; for % of maximum activity, Chymotrypsin: percentage of the maximum activity
Excerpt: as §1, with “reader. The esterase assay, using trypsin as a test enzyme and Z-Ala-Arg-OMe as substrate, was more sensitive as than traditional trypsin substrates (three times the rate obtained with benzoyl arginine ethyl aster and twenty times the rate of benzoyl arginine p-nitroanilide) (Whittaker et al., Analytical Biochemistry, 220, 238-243, 1994).” for “reader.”
as §2, §3

Trypsin [2] = conditions: trypsin as test enzyme; cited from earlier work
Trypsin [3] = experiment: Esterase assay, trypsin; type: biochemical; conditions: Z-AX-OMe substrate; for Esterase rate, Trypsin: X = P1 residue, rates approximately ± 10%; for % of maximum activity, Trypsin: percentage of the maximum activity
Excerpt: as §1, with “reader. The esterase assay, using trypsin as a test enzyme and Z-Ala-Arg-OMe as substrate, was more sensitive as than traditional trypsin substrates (three times the rate obtained with benzoyl arginine ethyl aster and twenty times the rate of benzoyl arginine p-nitroanilide) (Whittaker et al., Analytical Biochemistry, 220, 238-243, 1994).” for “reader.”
as §2, §3

[4] = substrates of the form Ac-Ala-x-TyrOMe, FIG. 2

Row | Compound | Rate relative to Ac-AlaValTyr-OMe (218) ([1]; PSA) [%] | Esterase rate, Elastase (Elastase) | % activity, Elastase (Elastase) [%] | Esterase rate, Thrombin (Thrombin) | % of maximum activity, Thrombin (Thrombin) [%] | Esterase rate, Proteinase K (Proteinase K) | % of maximum activity, Proteinase K (Proteinase K) [%] | Esterase rate, Subtilisin (Subtilisin) | % of maximum activity, Subtilisin (Subtilisin) [%] | Esterase rate, α-Lytic protease (α-Lytic protease) | % activity, α-Lytic protease (α-Lytic protease) [%] | Esterase rate, Chymotrypsin (Chymotrypsin) | % of maximum activity, Chymotrypsin (Chymotrypsin) [%] | Esterase rate, Trypsin (Trypsin [3]) | % of maximum activity, Trypsin (Trypsin [3]) [%] | Substrate preference of PSA [1] | further results
1 | COC(=O)[C@H](Cc1ccc(O)cc1)NC(=O)[C@H](CC(C)C)NC(=O)[C@H](C)NC(C)=O [Ac-AlaLeuTyr-OMe] (Ac-Ala-Leu-Tyr-OMe) | 70 | – | – | – | – | – | – | – | – | – | – | – | – | – | – | – | –
2 | COC(=O)[C@H](Cc1ccc(O)cc1)NC(=O)[C@@H](NC(=O)[C@H](C)NC(=O)[C@@H](NC(C)=O)C(C)C)C(C)C [Ac-Val AlaValTyr-OMe] (Ac-VAVY-OMe) | 64.6 | – | – | – | – | – | – | – | – | – | – | – | – | – | – | – | –
3 | COC(=O)[C@H](CCCNC(=N)N)NC(=O)[C@H](C)NC(=O)OCc1ccccc1 [Arg, Z-Ala-Arg-OMe] (Cbz-Ala-Arg-OMe) | – | 0 A580 change/min./mg protease | 0 | 8.7 A580 change/min./mg protease | 100 | 24 A580 change/min./mg protease | 3.1 | 97 A580 change/min./mg protease | 4.5 | 0 A580 change/min./mg protease | 0 | 1.1 A580 change/min./mg protease | 2.0 | 355.4 A580 change/min./mg protease | 100 | – | Rate relative to benzoyl arginine ethyl ester (Trypsin [2]): three times; Rate relative to benzoyl arginine p-nitroanilide (Trypsin [2]): twenty times
4 | COC(=O)[C@H](Cc1ccc(O)cc1)NC(=O)[C@@H](NC(=O)[C@H](C)NC(C)=O)C(C)C [Substrate 218, Ac-AlaValTyr-OMe] (Ac-Ala-Val-Tyr-OMe) | – | – | – | – | – | – | – | – | – | – | – | – | – | – | – | best | Rate relative to Z-AlaTyr OMe (the screening substrate) ([1]; PSA, from the graph (FIG. 2)): 15.5
5 | COC(=O)[C@H](Cc1ccc(O)cc1)NC(=O)[C@H](C)NC(=O)OCc1ccccc1 [Tyr, Z-Ala-Tyr-OMe] (Cbz-Ala-Tyr-OMe) | – | 0 A580 change/min./mg protease | 0 | 0 A580 change/min./mg protease | 0 | 80 A580 change/min./mg protease | 10.3 | 345 A580 change/min./mg protease | 16.1 | 0 A580 change/min./mg protease | 0 | 55.2 A580 change/min./mg protease | 100 | 10.8 A580 change/min./mg protease | 3.0 | preferred substrate | –
6 | PSA: prostate specific antigen, a protease; the enzyme tested on the substrates | – | – | – | – | – | – | – | – | – | – | – | – | – | – | – | – | Rate of PSA [1, 4]: 0.0263 OD580 change/min/μg; Rate of PSA, equivalent [1, 4]: 9.99 μmoles substrate/min/mg
